Data taken from ChEMBL document CHEMBL5303304, “EUbOPEN Chemogenomics Library - IncuCyte” (2023).

Columns and labels:
Type in all cases: toxicity, cell-based
[1] = test system: HEK-293T; experiment: Incucyte cell viability with HEK293T; details: human, 10 µM, compound concentration 10 uM
[2] = test system: Fibroblast; experiment: Incucyte cell viability with human fibroblast; details: 10 µM, compound concentration 10 uM
[3] = test system: U2OS; experiment: Incucyte cell viability with U2OS; details: human, 10 µM, compound concentration 10 uM
Note: unitless GR value; below 1 slowed growth and below 0 cell loss.

CC(CNS(=O)(=O)C(C)C)c1ccc(-c2ccc(C#N)cc2)cc1 (stereo unspecified)
Growth Rate ([1]; 6 h, replicate number 1): -0.35
Growth Rate ([1]; 12 h, replicate number 1): -0.18
Growth Rate ([1]; 12 h, replicate number 2): -0.01
Growth Rate ([1]; 18 h, replicate number 1): 0
Growth Rate ([1]; 18 h, replicate number 2): 0.16
Growth Rate ([1]; 24 h, replicate number 1): 0.05
Growth Rate ([1]; 24 h, replicate number 2): 0.22
Growth Rate ([2]; 0 h, replicate number 1): 0.04
Growth Rate ([2]; 6 h, replicate number 1): 0.92
Growth Rate ([2]; 6 h, replicate number 2): -0.76
Growth Rate ([2]; 12 h, replicate number 1): -0.89
Growth Rate ([2]; 12 h, replicate number 2): 0.02
Growth Rate ([2]; 18 h, replicate number 1): -0.2
Growth Rate ([2]; 18 h, replicate number 2): 0.43
Growth Rate ([2]; 24 h, replicate number 1): 0.14
Growth Rate ([2]; 24 h, replicate number 2): 0.51
Growth Rate ([3]; 0 h, replicate number 2): 0.02
Growth Rate ([3]; 12 h, replicate number 1): 0.81
Growth Rate ([3]; 12 h, replicate number 2): 0.82
Growth Rate ([3]; 18 h, replicate number 1): 0.83
Growth Rate ([3]; 18 h, replicate number 2): 0.73
Growth Rate ([3]; 24 h, replicate number 1): 0.9
Growth Rate ([3]; 24 h, replicate number 2): 0.84

Cn1c(SCc2ccc(C(C)(C)C)cc2)nc(N)cc1=O
Growth Rate ([1]; 0 h, replicate number 1): 0.71
Growth Rate ([1]; 6 h, replicate number 1): -0.1
Growth Rate ([1]; 6 h, replicate number 2): -0.24
Growth Rate ([1]; 12 h, replicate number 1): -0.03
Growth Rate ([1]; 12 h, replicate number 2): 0.05
Growth Rate ([1]; 18 h, replicate number 1): 0.15
Growth Rate ([1]; 18 h, replicate number 2): 0.19
Growth Rate ([1]; 24 h, replicate number 1): 0.2
Growth Rate ([1]; 24 h, replicate number 2): 0.23
Growth Rate ([2]; 0 h, replicate number 1): 0.97
Growth Rate ([2]; 0 h, replicate number 2): -1
Growth Rate ([2]; 6 h, replicate number 1): -0.69
Growth Rate ([3]; 0 h, replicate number 2): -0.65
Growth Rate ([3]; 6 h, replicate number 1): 0.7
Growth Rate ([3]; 12 h, replicate number 1): 0.86
Growth Rate ([3]; 12 h, replicate number 2): 0.66
Growth Rate ([3]; 18 h, replicate number 1): 0.62
Growth Rate ([3]; 18 h, replicate number 2): 0.71
Growth Rate ([3]; 24 h, replicate number 1): 0.78
Growth Rate ([3]; 24 h, replicate number 2): 0.68

COc1ncc(-c2cc(-c3ncc(CN4C[C@@H](C)O[C@@H](C)C4)o3)c3cn[nH]c3c2)cc1NS(C)(=O)=O
Growth Rate ([1]; 6 h, replicate number 1): -0.44
Growth Rate ([1]; 6 h, replicate number 2): -0.64
Growth Rate ([1]; 12 h, replicate number 1): -0.15
Growth Rate ([1]; 12 h, replicate number 2): -0.32
Growth Rate ([1]; 18 h, replicate number 1): -0.01
Growth Rate ([1]; 18 h, replicate number 2): -0.2
Growth Rate ([1]; 24 h, replicate number 1): 0.05
Growth Rate ([1]; 24 h, replicate number 2): -0.11
Growth Rate ([2]; 6 h, replicate number 1): -0.74
Growth Rate ([2]; 6 h, replicate number 2): -0.56
Growth Rate ([2]; 12 h, replicate number 1): -0.39
Growth Rate ([2]; 12 h, replicate number 2): -0.16
Growth Rate ([2]; 18 h, replicate number 1): -0.21
Growth Rate ([2]; 18 h, replicate number 2): 0.05
Growth Rate ([2]; 24 h, replicate number 1): -0.03
Growth Rate ([2]; 24 h, replicate number 2): 0.3
Growth Rate ([3]; 0 h, replicate number 2): -0.39
Growth Rate ([3]; 6 h, replicate number 1): -0.31
Growth Rate ([3]; 6 h, replicate number 2): -0.02
Growth Rate ([3]; 12 h, replicate number 1): 0.56
Growth Rate ([3]; 12 h, replicate number 2): 0.02
Growth Rate ([3]; 18 h, replicate number 1): 0.72
Growth Rate ([3]; 18 h, replicate number 2): 0.21
Growth Rate ([3]; 24 h, replicate number 1): 0.82
Growth Rate ([3]; 24 h, replicate number 2): 0.36

O=C(Nc1c(-c2cccs2)nc2ccc(Cl)cn12)c1ccc(Cl)cc1
Growth Rate ([1]; 6 h, replicate number 1): 0.88
Growth Rate ([2]; 0 h, replicate number 1): 0.89
Growth Rate ([2]; 6 h, replicate number 2): -1
Growth Rate ([2]; 12 h, replicate number 1): -1
Growth Rate ([2]; 18 h, replicate number 1): 0.47
Growth Rate ([3]; 6 h, replicate number 1): 0.3
Growth Rate ([3]; 6 h, replicate number 2): 0.69
Growth Rate ([3]; 12 h, replicate number 1): 0.64
Growth Rate ([3]; 12 h, replicate number 2): 0.81
Growth Rate ([3]; 18 h, replicate number 1): 0.95
Growth Rate ([3]; 18 h, replicate number 2): 0.75
Growth Rate ([3]; 24 h, replicate number 1): 0.97
Growth Rate ([3]; 24 h, replicate number 2): 0.56

CC(=O)N1CCC(c2ccc(C(=O)NC(=N)N)cc2C(F)(F)F)CC1 [BI 9627]
Growth Rate ([1]; 0 h, replicate number 1): 0.72
Growth Rate ([1]; 6 h, replicate number 2): 0.69
Growth Rate ([1]; 12 h, replicate number 2): 0.65
Growth Rate ([1]; 18 h, replicate number 2): 0.77
Growth Rate ([1]; 24 h, replicate number 2): 0.92
Growth Rate ([2]; 12 h, replicate number 2): 0.57
Growth Rate ([2]; 18 h, replicate number 2): 0.95
Growth Rate ([2]; 24 h, replicate number 1): 0.8
Growth Rate ([2]; 24 h, replicate number 2): 0.76
Growth Rate ([3]; 0 h, replicate number 1): 0.01
Growth Rate ([3]; 0 h, replicate number 2): 0.44
Growth Rate ([3]; 6 h, replicate number 1): 0.3
Growth Rate ([3]; 12 h, replicate number 1): 0.75
Growth Rate ([3]; 12 h, replicate number 2): 0.96
Growth Rate ([3]; 18 h, replicate number 1): 0.9
Growth Rate ([3]; 24 h, replicate number 1): 1
Growth Rate ([3]; 24 h, replicate number 2): 0.92

C#Cc1cnc2[nH]cc(-c3cccc4c3CCN4C(=O)[C@@H]3CCCN3C#N)c2c1
Growth Rate ([1]; 6 h, replicate number 1): -0.95
Growth Rate ([1]; 6 h, replicate number 2): -0.98
Growth Rate ([1]; 12 h, replicate number 1): -0.75
Growth Rate ([1]; 12 h, replicate number 2): -0.78
Growth Rate ([1]; 18 h, replicate number 1): -0.46
Growth Rate ([1]; 18 h, replicate number 2): -0.5
Growth Rate ([1]; 24 h, replicate number 1): -0.29
Growth Rate ([1]; 24 h, replicate number 2): -0.34
Growth Rate ([2]; 0 h, replicate number 1): -1
Growth Rate ([2]; 6 h, replicate number 1): -0.83
Growth Rate ([2]; 6 h, replicate number 2): -1
Growth Rate ([2]; 12 h, replicate number 1): -0.63
Growth Rate ([2]; 12 h, replicate number 2): -0.69
Growth Rate ([2]; 18 h, replicate number 1): -0.48
Growth Rate ([2]; 18 h, replicate number 2): -0.58
Growth Rate ([2]; 24 h, replicate number 1): -0.36
Growth Rate ([2]; 24 h, replicate number 2): -0.41
Growth Rate ([3]; 0 h, replicate number 1): 0.82
Growth Rate ([3]; 6 h, replicate number 1): 0.06
Growth Rate ([3]; 6 h, replicate number 2): 0.45
Growth Rate ([3]; 12 h, replicate number 1): -0.58
Growth Rate ([3]; 12 h, replicate number 2): -0.19
Growth Rate ([3]; 18 h, replicate number 1): -0.68
Growth Rate ([3]; 18 h, replicate number 2): -0.52
Growth Rate ([3]; 24 h, replicate number 1): -0.58
Growth Rate ([3]; 24 h, replicate number 2): -0.56

CCN(C(=O)c1cc(F)ccc1Oc1cncnc1N1CC2(CCN(C[C@H]3CC[C@H](NS(=O)(=O)CC)CC3)CC2)C1)C(C)C [REVUMENIB]
Growth Rate ([1]; 0 h, replicate number 1): -0.33
Growth Rate ([1]; 0 h, replicate number 2): 0.43
Growth Rate ([1]; 6 h, replicate number 2): 0.24
Growth Rate ([1]; 12 h, replicate number 2): 0.53
Growth Rate ([1]; 18 h, replicate number 2): 0.48
Growth Rate ([1]; 24 h, replicate number 2): 0.38
Growth Rate ([2]; 0 h, replicate number 2): 0.3
Growth Rate ([2]; 6 h, replicate number 1): 0.15
Growth Rate ([2]; 6 h, replicate number 2): 0.81
Growth Rate ([2]; 12 h, replicate number 1): 0.94
Growth Rate ([2]; 18 h, replicate number 1): 0.79
Growth Rate ([2]; 18 h, replicate number 2): 0.88
Growth Rate ([2]; 24 h, replicate number 1): 0.88
Growth Rate ([2]; 24 h, replicate number 2): 0.93
Growth Rate ([3]; 0 h, replicate number 1): 0.19
Growth Rate ([3]; 0 h, replicate number 2): 0.45
Growth Rate ([3]; 6 h, replicate number 1): 0.62
Growth Rate ([3]; 6 h, replicate number 2): 0.45
Growth Rate ([3]; 12 h, replicate number 1): 0.8
Growth Rate ([3]; 12 h, replicate number 2): 0.79
Growth Rate ([3]; 18 h, replicate number 1): 0.77
Growth Rate ([3]; 18 h, replicate number 2): 0.76
Growth Rate ([3]; 24 h, replicate number 1): 0.76
Growth Rate ([3]; 24 h, replicate number 2): 0.67

Oc1cccc(Nc2ccnc3[nH]c4ccccc4c23)c1
Growth Rate ([1]; 6 h, replicate number 1): -0.94
Growth Rate ([1]; 6 h, replicate number 2): -0.96
Growth Rate ([1]; 12 h, replicate number 1): -0.75
Growth Rate ([1]; 12 h, replicate number 2): -0.62
Growth Rate ([1]; 18 h, replicate number 1): -0.41
Growth Rate ([1]; 18 h, replicate number 2): -0.28
Growth Rate ([1]; 24 h, replicate number 1): -0.06
Growth Rate ([1]; 24 h, replicate number 2): 0
Growth Rate ([2]; 0 h, replicate number 1): 0.68
Growth Rate ([2]; 6 h, replicate number 1): -0.78
Growth Rate ([2]; 6 h, replicate number 2): -0.81
Growth Rate ([2]; 12 h, replicate number 1): -0.34
Growth Rate ([2]; 12 h, replicate number 2): -0.25
Growth Rate ([2]; 18 h, replicate number 2): 0.18
Growth Rate ([2]; 24 h, replicate number 1): 0.48
Growth Rate ([2]; 24 h, replicate number 2): 0.3
Growth Rate ([3]; 12 h, replicate number 2): 0.91
Growth Rate ([3]; 18 h, replicate number 1): 0.69
Growth Rate ([3]; 18 h, replicate number 2): 0.7
Growth Rate ([3]; 24 h, replicate number 1): 0.73
Growth Rate ([3]; 24 h, replicate number 2): 0.63

Nc1nc2cc(-c3cc(Cl)ccc3Oc3cc(F)c(S(=O)(=O)Nc4ncns4)cc3F)ccc2[nH]1
Growth Rate ([1]; 0 h, replicate number 1): 0.66
Growth Rate ([1]; 0 h, replicate number 2): 0.52
Growth Rate ([2]; 0 h, replicate number 2): -0.38
Growth Rate ([2]; 6 h, replicate number 1): -0.93
Growth Rate ([2]; 24 h, replicate number 1): 0.45
Growth Rate ([2]; 24 h, replicate number 2): 0.9
Growth Rate ([3]; 0 h, replicate number 1): -0.72
Growth Rate ([3]; 0 h, replicate number 2): 0.2
Growth Rate ([3]; 6 h, replicate number 1): 0.51
Growth Rate ([3]; 12 h, replicate number 1): 0.84
Growth Rate ([3]; 18 h, replicate number 1): 0.76
Growth Rate ([3]; 24 h, replicate number 1): 0.89
